Assay results as given in patent US10125100B2, “Kinase inhibitors” (Respivert Limited, priority 2014, dated 2018).

Key:
[1] = target: p38 MAPKα (MAPK14) (Homo sapiens (Human), UniProt Q16539); assay: p38 MAPKα enzyme inhibition (Method 2), Z-LYTE FRET; format: biochemical
Experimental: (§1) The enzyme inhibitory activities of compounds disclosed herein are determined by FRET using synthetic peptides labelled with both donor and acceptor fluorophores (Z-LYTE, Invitrogen Ltd., Paisley, UK).
The following two assay variants can be used for determination of p38 MAPKα inhibition.
The inhibitory activities of test compounds against the p38 MAPKα isoform (MAPK14: Invitrogen) are evaluated indirectly by determining the level of activation/phosphorylation of the down-stream molecule, MAPKAP-K2. The p38 MAPKα protein (80 ng/mL, 2.5 μL) is mixed with the test compound (2.5 μL of either 4 μg/mL, 0.4 μg/mL, 0.04 μg/mL or 0.004 μg/mL) for 2 hr at RT. […] The mixture is incubated for 1 hr at RT. Development reagent (protease, 5 μL) is added for 1 hr prior to detection in a fluorescence microplate reader (Varioskan® Flash, ThermoFisher Scientific).
This method follows the same steps as Method 1 above, but utilises a higher concentration of the p38 MAPKα protein (2.5 μL of 200 ng/mL protein instead of 2.5 μL of 80 ng/mL protein) for mixing with the test compound (tested at either 1 μg/mL, 0.1 μg/mL, 0.01 μg/mL or 0.001 μg/mL).
(§2) In all cases, the site-specific protease cleaves non-phosphorylated peptide only and eliminates the FRET signal. Phosphorylation levels of each reaction are calculated using the ratio of coumarin emission (donor) over fluorescein emission (acceptor), for which high ratios indicate high phosphorylation and low ratios indicate low phosphorylation levels.

[2] = target: c-Src (Homo sapiens (Human), UniProt P12931); assay: c-Src enzyme inhibition, Z-LYTE FRET; format: biochemical
Chain of c-Src (P12931 whole entry, looked up): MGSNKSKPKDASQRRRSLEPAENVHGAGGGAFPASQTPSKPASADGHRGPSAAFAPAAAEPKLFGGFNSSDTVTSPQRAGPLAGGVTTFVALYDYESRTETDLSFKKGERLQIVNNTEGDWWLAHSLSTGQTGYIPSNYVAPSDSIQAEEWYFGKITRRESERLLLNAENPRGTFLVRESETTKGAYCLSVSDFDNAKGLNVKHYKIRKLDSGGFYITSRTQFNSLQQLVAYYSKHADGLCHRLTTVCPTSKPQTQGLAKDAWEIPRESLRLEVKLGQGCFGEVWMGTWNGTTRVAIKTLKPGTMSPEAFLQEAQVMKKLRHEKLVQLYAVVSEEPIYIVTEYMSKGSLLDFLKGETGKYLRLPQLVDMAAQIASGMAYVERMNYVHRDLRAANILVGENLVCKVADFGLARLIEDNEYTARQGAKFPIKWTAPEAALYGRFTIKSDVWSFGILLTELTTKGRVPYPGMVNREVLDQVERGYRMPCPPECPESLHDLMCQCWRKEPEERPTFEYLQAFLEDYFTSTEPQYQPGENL
Experimental: as §1
(§3) The inhibitory activities of compounds of the invention against c-Src and Syk enzymes (Invitrogen), are evaluated in a similar fashion to that described hereinabove. The relevant enzyme (3000 ng/mL or 2000 ng/mL respectively, 2.5 μL) is incubated with the test compound (either 1 μg/mL, 0.1 μg/mL, 0.01 μg/mL, or 0.001 μg/mL, 2.5 μL each) for 2 hr at RT. The FRET peptides (8 μM, 2.5 μL), and appropriate ATP solutions (2.5 μL, 800 μM for c-Src, and 60 μM ATP for Syk) are then added to the enzymes/compound mixtures and the mixture incubated for 1 hr. Development reagent (protease, 5 μL) is added for 1 hr prior to detection in a fluorescence microplate reader (Varioskan® Flash, ThermoFisher Scientific).
as §2

[3] = target: Syk (Homo sapiens (Human), UniProt P43405); assay: Syk enzyme inhibition, Z-LYTE FRET; format: biochemical
Experimental: as §1
as §3, with “The” for “The inhibitory activities of compounds of the invention against c-Src and Syk enzymes (Invitrogen), are evaluated in a similar fashion to that described hereinabove. The”
as §2

[4] = system: Jurkat cells; assay: (r) Cell cytotoxicity assay; format: cell-based, human; conditions: 24 hours
Procedure, shortened: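 Viability read by flow cytometry as the fraction of propidium iodide-negative cells (7.5 μg/mL PI, 15 min), relative to 1.0% DMSO control. Beforehand, 1×10^5 Jurkat cells in RPMI/10% FBS were treated 24 h at 37° C., 5% CO2 with test compound at final 20, 5 or 1 μg/mL.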

Chain of p38 MAPKα (MAPK14) (Q16539 whole entry): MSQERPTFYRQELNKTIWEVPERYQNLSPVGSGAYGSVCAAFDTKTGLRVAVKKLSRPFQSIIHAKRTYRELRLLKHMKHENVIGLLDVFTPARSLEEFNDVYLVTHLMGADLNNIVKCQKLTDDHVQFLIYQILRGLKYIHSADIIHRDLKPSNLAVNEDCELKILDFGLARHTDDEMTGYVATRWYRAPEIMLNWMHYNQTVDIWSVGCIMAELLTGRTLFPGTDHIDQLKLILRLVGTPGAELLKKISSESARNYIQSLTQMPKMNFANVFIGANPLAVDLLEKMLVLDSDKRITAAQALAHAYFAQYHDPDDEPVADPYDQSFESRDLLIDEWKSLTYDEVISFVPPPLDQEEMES

SMILES | IC50 [1] | IC50 [2] | IC50 [3] | % Viability at 1 μg/mL [4] | % Viability at 5 μg/mL [4] | % Viability at 20 μg/mL [4]
COc1cc(Nc2cc(Oc3ccc(NC(=O)Nc4cc(C(C)(C)C)cc(NS(C)(=O)=O)c4OC)c4ccccc34)ccn2)ccc1S(=O)(=O)CC(CO)(CO)CO [Example 45, N-(5-(tert-Butyl)-3-(3-(4-((2-((4-((3-hydroxy-2,2-bis(hydroxymethyl)propyl)sulfonyl)-3-methoxyphenyl)amino)pyridin-4-yl)oxy)naphthalen-1-yl)ureido)-2-methoxyphenyl)-methanesulfonamide] | 0.036 µM | 0.04 µM | 0.108 µM | 97.7% | 93.7% | 9.8%
COc1cc(Nc2cc(Oc3ccc(NC(=O)Nc4cc(C(C)(C)C)cc(NS(C)(=O)=O)c4OC)c4ccccc34)ccn2)ccc1C(=O)NC[C@H](O)[C@H](O)[C@H](O)CO [Example 42, 4-((4-((4-(3-(5-(tert-Butyl)-2-methoxy-3-(methylsulfonamido)phenyl)ureido)naphthalen-1-yl)oxy)pyridin-2-yl)amino)-2-methoxy-N-((2S,3S4R)-2,3,4,5-tetrahydroxypentyl)benzamide] | 0.003 µM | 0.021 µM | 0.088 µM | 96.6% | 91.7% | 21.3%
COc1cc(Nc2cc(Oc3ccc(NC(=O)Nc4cc(C(C)(C)C)cc(NC(=O)CO)c4OC)c4ccccc34)ccn2)ccc1C(=O)NCCN1CC[S+]([O-])CC1 [Example 41, 4-((4-((4-(3-(5-(tert-Butyl)-3-(2-hydroxyacetamido)-2-methoxyphenyl)ureido)naphthalen-1-yl)oxy)pyridin-2-yl)amino)-2-methoxy-N-(2-(1-oxidothiomorpholino)ethyl)benzamide] | 0.031 µM | 0.013 µM | 0.325 µM | 90.5% | 67.3% | 55.3%
COCCOCCOCCOc1ccc(Nc2cc(Oc3ccc(NC(=O)Nc4cc(C(C)(C)C)cc(NS(C)(=O)=O)c4OC)c4ccccc34)ccn2)cc1C#N [Example 8, N-(5-(tert-Butyl)-3-(3-(4-((2-((3-cyano-4-(2-(2-(2-methoxyethoxy)ethoxy)ethoxy)phenyl)amino)pyridin-4-yl)oxy)naphthalen-1-yl)ureido)-2-methoxyphenyl)methanesulfonamide] | 0.214 µM | – | – | – | – | –
COc1cc(Nc2cc(Oc3ccc(NC(=O)Nc4cc(C(C)(C)C)cc(NC(=O)COP(=O)(O)O)c4OC)c4ccccc34)ccn2)ccc1C(=O)NCCN1CC[S+]([O-])CC1 [17(cp), 2-((5-(tert-Butyl)-2-methoxy-3-(3-(4-((2-((3-methoxy-4-((2-(1-oxidothiomorpholino)-ethyl)carbamoyl)phenyl)amino)pyridin-4-yl)oxy)naphthalen-1-yl)ureido)phenyl)amino)-2-oxoethyl dihydrogen phosphate] | – | 0.02 µM | 0.393 µM | 97.6% | 96.9% | 94.7%
COc1cc(Nc2cc(Oc3ccc(NC(=O)Nc4cc(C(C)(C)C)cc(NS(C)(=O)=O)c4OC)c4ccccc34)ccn2)ccc1S(=O)(=O)N(C)CCN1CCN(C)CC1 [17(bb), 4-((4-((4-(3-(5-(tert-Butyl)-2-methoxy-3-(methylsulfonamido)phenyl)ureido)naphthalen-1-yl)oxy)pyridin-2-yl)amino)-2-methoxy-N-methyl-N-(2-(4-methylpiperazin-1-yl)ethyl)benzenesulfonamide] | – | – | – | 90.9% | 19.2% | 0.2%
COc1cc(Nc2cc(Oc3ccc(NC(=O)Nc4cc(C(C)(C)C)cc(NS(C)(=O)=O)c4OC)c4ccccc34)ccn2)ccc1C(=O)N[C@H]1C(O)O[C@H](CO)[C@@H](O)[C@@H]1O (stereo partly drawn) [17(br), 4-((4-((4-(3-(5-(tert-Butyl)-2-methoxy-3-(methylsulfonamido)phenyl)ureido)naphthalen-1-yl)oxy)pyridin-2-yl)amino)-2-methoxy-N-((3R,4R,5S,6R)-2,4,5-trihydroxy-6-(hydroxymethyl)tetrahydro-2H-pyran-3-yl)benzamide] | – | – | – | 91.8% | 90.7% | 79.2%

Second part, led by results:

IC50 [1] | IC50 [2] | IC50 [3] | SMILES | % Viability at 1 μg/mL [4] | % Viability at 5 μg/mL [4] | % Viability at 20 μg/mL [4]
0.005 µM | – | – | COc1cc(Nc2cc(Oc3ccc(NC(=O)Nc4cc(C(C)(C)C)cc(NS(C)(=O)=O)c4OC)c4ccccc34)ccn2)ccc1C(=O)N(C)CCCN1CCOCC1 [17(af), 4-[[4-[[4-[[5-tert-butyl-3-(methanesulfonamido)-2-methoxy-phenyl]carbamoylamino]-1-naphthyl]oxy]-2-pyridyl]amino]-2-methoxy-N-methyl-N-(3-morpholinopropyl)benzamide] | 96.7% | 76.2% | 54.1%
0.04 µM | – | – | COc1cc(Nc2cc(Oc3ccc(NC(=O)Nc4cc(C(C)(C)C)cc(NS(C)(=O)=O)c4OC)c4ccccc34)ccn2)ccc1C(=O)NCCN1CCN(C2CC2)CC1 [Example 26, 4-((4-((4-(3-(5-(tert-Butyl)-2-methoxy-3-(methylsulfonamido)phenyl)ureido)naphthalen-1-yl)oxy)pyridin-2-yl)amino)-N-(2-(4-cyclopropylpiperazin-1-yl)ethyl)-2-methoxybenzamide] | 94.8% | 84.6% | 76.6%
0.047 µM | 0.029 µM | 0.082 µM | COc1cc(Nc2cc(Oc3ccc(NC(=O)Nc4cc(C(C)(C)C)cc(NS(C)(=O)=O)c4OC)c4ccccc34)ccn2)ccc1C(=O)NC(CO)(CO)CO [17(cm), 4-((4-((4-(3-(5-(tert-Butyl)-2-methoxy-3-(methylsulfonamido)phenyl)ureido)naphthalen-1-yl)oxy)pyridin-2-yl)amino)-N-(1,3-dihydroxy-2-(hydroxymethyl)propan-2-yl)-2-methoxybenzamide] | 95.9% | 77.0% | 14.5%
– | 0.016 µM | 0.015 µM | COc1c(NC(=O)Nc2ccc(Oc3ccnc(Nc4ccc(C(=O)NCCN5CCOCC5)c(N(C)C)c4)c3)c3ccccc23)cc(C(C)(C)C)cc1NS(C)(=O)=O [Example 21] | 101.2% | 82.4% | 77.1%
– | 0.077 µM | 0.144 µM | COc1cc(Nc2cc(Oc3ccc(NC(=O)Nc4cc(C(C)(C)C)cc(NS(C)(=O)=O)c4OC)c4ccccc34)ccn2)ccc1S(=O)(=O)CCCN1CCOCC1 [Example 20, N-(5-(tert-Butyl)-2-methoxy-3-(3-(4-((2-((3-methoxy-4-((3-morpholinopropyl)sulfonyl)phenyl)-amino)pyridin-4-yl)oxy)naphthalen-1-yl)ureido)phenyl)methanesulfonamide] | 104.0% | 99.3% | 91.8%
– | 0.232 µM | 0.948 µM | COc1cc(Nc2cc(Oc3ccc(NC(=O)Nc4cc(C(C)(C)C)cc(NS(C)(=O)=O)c4OC)c4ccccc34)ccn2)ccc1S(=O)(=O)N(C)CCN1CCOCC1 [17(o), 1-[5-tert-butyl-3-(methanesulfonamido)-2-methoxy-phenyl]-3-[4-[[2-[3-methoxy-4-[methyl(2-morpholinoethyl)sulfamoyl]anilino]-4-pyridyl]oxy]-1-naphthyl]urea] | – | – | –
– | 0.15 µM | 0.809 µM | COc1cc(Nc2cc(Oc3ccc(NC(=O)Nc4cc(C(C)(C)C)cc(NS(C)(=O)=O)c4OC)c4ccccc34)ccn2)ccc1S(=O)(=O)N(C)CCCN1CCOCC1 [Example 13, 1-[5-tert-Butyl-3-(methanesulfonamido)-2-methoxy-phenyl]-3-[4-[[2-[3-methoxy-4-[methyl(3-morpholinopropyl)sulfamoyl]anilino]-4-pyridyl]oxy]-1-naphthyl]urea] | – | – | –
